From PMC7827406, “Structure–Activity Relationship (SAR) Study of Spautin-1 to Entail the Discovery of Novel NEK4 Inhibitors” (International Journal of Molecular Sciences, 2021)
Where two headings read alike, the source gives them in different places.

Experiments:
Test in all cases: biochemical
Set-up in all cases: Eurofins KinaseProfiler full panel at Km ATP, residual kinase activity (%) relative to DMSO
[1] = biological target: T1, PI3 Kinase (p110a(E545K)/p85a)(m) (Mus musculus, UniProt P42337, E545K)
T1 construct: gene Pik3ca
How it was run: (§1)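 Radiometric kinase activity assays were run with ATP at Km and compounds at 10 µM, and remaining activity (%) was reported. A separate competitive binding screen measured DNA-tagged kinase displaced from immobilized active-site ligands by qPCR, giving percent kinase still bound at 10 µM compound in DMSO.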

GCN2(h) = biological target: T2, GCN2(h) (Homo sapiens, UniProt Q9P2K8)
T2 construct: gene EIF2AK4
How it was run: as §1

MYLK2(h) = MYLK2(h) (Homo sapiens, UniProt Q9H1R3)
How it was run: as §1

CK1γ2(h) = biological target: T3, CK1γ2(h) (Homo sapiens, UniProt P78368)
T3 construct: gene CSNK1G2
How it was run: as §1

MKK6(h) = biological target: T4, MKK6(h) (Homo sapiens, UniProt P52564)
T4 construct: gene MAP2K6
T4 sequence (P52564 1-334): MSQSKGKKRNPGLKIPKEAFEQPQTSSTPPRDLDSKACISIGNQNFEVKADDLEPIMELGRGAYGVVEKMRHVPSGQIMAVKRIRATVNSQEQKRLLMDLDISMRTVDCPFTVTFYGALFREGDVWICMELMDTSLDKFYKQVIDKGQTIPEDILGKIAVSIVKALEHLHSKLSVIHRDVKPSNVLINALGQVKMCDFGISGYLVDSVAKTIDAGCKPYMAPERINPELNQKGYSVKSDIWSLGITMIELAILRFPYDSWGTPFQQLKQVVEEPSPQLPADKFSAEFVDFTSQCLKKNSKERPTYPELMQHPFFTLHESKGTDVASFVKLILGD
How it was run: as §1

DYRK2(h) = biological target: T5, DYRK2(h) (Homo sapiens, UniProt Q92630)
T5 sequence (Q92630 1-601): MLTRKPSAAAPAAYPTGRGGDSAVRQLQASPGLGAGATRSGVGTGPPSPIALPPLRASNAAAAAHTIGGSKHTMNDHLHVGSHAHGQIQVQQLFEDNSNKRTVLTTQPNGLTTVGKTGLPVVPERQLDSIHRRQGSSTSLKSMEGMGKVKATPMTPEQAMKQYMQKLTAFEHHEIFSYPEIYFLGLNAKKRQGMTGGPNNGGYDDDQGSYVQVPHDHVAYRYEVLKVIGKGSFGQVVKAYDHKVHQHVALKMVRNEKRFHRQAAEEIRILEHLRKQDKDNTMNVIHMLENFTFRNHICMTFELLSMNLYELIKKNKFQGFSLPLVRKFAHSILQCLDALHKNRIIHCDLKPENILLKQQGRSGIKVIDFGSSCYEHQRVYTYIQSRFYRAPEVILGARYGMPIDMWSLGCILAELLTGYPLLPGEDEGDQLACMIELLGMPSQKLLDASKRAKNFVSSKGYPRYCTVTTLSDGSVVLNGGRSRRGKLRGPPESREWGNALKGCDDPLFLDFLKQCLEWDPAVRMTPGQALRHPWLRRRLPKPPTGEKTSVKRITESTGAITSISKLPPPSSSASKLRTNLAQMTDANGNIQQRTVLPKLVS
How it was run: as §1

EphB3(h) = biological target: T6, EphB3(h) (Homo sapiens, UniProt P54753)
T6 sequence (P54753 1-998): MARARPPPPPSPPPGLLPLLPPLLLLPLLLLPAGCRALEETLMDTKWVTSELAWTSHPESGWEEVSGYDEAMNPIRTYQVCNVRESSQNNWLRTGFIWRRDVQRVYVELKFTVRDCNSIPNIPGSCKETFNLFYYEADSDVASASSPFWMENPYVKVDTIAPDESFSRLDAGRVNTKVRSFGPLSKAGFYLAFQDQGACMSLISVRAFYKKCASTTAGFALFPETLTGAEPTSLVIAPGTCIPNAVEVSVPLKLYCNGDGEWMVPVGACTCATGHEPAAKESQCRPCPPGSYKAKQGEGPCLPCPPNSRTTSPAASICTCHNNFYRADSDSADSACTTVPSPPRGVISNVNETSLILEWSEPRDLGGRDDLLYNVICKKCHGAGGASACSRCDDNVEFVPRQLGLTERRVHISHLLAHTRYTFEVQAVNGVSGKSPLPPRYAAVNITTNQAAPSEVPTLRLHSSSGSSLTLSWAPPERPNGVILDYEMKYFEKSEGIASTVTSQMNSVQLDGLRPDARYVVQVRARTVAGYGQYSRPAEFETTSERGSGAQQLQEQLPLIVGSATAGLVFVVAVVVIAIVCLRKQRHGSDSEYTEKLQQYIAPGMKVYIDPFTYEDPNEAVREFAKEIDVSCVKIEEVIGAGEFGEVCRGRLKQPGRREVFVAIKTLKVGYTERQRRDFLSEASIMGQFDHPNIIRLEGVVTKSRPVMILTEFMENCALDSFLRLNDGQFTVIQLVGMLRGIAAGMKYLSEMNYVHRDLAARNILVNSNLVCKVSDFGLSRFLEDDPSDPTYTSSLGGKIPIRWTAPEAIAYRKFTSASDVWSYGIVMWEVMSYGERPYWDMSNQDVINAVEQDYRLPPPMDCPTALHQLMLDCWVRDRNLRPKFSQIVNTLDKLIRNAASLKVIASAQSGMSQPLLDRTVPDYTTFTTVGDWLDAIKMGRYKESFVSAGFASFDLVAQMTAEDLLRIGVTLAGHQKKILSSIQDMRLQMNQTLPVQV
How it was run: as §1

[2] = read-out: Residual activity (%) 5ay
[3] = read-out: Residual activity (%) Spautin-1 5aa
[4] = read-out: Residual activity (%) 5at
[5] = read-out: Residual activity (%) 5as

T2 sequence (Q9P2K8 whole entry): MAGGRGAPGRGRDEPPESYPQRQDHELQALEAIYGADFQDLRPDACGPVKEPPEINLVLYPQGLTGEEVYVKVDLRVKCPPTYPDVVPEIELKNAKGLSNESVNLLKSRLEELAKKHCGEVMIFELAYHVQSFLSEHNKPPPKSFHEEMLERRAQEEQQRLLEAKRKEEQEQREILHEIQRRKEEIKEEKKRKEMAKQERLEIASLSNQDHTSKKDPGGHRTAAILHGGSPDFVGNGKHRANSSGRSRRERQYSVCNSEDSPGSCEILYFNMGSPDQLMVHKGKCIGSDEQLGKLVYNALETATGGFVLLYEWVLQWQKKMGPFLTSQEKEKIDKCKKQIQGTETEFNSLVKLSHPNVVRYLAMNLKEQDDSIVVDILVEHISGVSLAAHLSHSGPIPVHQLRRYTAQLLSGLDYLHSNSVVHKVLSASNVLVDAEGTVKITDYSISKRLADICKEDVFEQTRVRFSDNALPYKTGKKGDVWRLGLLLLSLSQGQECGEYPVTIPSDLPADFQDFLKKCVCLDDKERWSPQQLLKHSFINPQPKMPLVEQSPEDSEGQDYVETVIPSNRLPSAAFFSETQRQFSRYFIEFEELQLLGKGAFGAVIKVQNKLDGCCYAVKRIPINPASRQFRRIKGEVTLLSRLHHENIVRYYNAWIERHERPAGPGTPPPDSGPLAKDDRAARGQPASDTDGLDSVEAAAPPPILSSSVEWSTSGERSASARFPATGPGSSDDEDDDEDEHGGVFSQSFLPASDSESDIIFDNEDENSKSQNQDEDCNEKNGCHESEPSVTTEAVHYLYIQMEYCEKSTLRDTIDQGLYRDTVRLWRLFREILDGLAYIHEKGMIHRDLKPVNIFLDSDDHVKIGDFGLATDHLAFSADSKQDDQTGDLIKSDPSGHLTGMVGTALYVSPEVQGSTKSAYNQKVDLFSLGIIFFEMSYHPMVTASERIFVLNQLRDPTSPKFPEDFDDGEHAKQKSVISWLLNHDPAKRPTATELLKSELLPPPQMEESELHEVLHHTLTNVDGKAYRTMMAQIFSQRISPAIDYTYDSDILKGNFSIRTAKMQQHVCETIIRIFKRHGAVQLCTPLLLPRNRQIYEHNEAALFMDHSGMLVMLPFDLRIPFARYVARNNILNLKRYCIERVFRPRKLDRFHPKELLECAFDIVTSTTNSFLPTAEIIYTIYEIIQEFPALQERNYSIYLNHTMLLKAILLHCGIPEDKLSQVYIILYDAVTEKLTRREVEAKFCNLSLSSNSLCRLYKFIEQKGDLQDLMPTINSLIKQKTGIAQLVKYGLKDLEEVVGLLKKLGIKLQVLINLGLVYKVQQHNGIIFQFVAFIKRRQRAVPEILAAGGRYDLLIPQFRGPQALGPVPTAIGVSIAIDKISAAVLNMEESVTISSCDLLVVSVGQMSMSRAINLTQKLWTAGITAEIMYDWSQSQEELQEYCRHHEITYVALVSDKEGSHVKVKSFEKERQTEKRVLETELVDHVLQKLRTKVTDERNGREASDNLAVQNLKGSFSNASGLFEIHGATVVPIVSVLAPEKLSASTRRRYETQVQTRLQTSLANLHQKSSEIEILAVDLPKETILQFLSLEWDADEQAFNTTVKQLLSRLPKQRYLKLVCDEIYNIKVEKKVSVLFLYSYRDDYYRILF
T1 sequence (P42337 whole entry E545K): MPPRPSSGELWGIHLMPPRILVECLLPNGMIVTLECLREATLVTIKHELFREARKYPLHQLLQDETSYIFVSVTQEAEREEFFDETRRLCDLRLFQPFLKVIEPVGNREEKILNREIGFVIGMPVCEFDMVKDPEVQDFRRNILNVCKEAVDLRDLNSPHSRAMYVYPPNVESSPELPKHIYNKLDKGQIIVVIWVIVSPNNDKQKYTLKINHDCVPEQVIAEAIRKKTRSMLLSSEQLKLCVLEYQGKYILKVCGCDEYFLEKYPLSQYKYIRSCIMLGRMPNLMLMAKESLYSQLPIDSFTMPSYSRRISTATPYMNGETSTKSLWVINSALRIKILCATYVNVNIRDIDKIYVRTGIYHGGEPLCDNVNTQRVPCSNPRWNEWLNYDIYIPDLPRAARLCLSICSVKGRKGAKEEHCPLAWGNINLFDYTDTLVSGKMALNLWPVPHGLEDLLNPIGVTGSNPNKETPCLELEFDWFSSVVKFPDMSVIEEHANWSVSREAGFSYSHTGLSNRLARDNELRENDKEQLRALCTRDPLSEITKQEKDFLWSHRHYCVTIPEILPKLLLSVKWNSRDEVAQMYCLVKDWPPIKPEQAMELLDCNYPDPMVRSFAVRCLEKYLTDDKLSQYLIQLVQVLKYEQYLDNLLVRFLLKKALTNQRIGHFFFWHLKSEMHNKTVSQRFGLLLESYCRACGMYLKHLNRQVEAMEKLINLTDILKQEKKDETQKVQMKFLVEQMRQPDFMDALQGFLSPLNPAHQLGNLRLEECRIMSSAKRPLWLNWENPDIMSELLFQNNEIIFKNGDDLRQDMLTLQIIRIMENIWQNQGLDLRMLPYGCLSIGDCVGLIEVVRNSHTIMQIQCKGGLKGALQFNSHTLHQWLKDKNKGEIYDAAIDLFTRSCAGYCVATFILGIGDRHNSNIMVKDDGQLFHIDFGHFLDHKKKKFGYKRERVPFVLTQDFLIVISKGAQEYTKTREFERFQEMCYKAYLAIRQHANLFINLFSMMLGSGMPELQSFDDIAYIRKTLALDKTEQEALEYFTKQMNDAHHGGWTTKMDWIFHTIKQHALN
T1 sequence (P26450 whole entry partner): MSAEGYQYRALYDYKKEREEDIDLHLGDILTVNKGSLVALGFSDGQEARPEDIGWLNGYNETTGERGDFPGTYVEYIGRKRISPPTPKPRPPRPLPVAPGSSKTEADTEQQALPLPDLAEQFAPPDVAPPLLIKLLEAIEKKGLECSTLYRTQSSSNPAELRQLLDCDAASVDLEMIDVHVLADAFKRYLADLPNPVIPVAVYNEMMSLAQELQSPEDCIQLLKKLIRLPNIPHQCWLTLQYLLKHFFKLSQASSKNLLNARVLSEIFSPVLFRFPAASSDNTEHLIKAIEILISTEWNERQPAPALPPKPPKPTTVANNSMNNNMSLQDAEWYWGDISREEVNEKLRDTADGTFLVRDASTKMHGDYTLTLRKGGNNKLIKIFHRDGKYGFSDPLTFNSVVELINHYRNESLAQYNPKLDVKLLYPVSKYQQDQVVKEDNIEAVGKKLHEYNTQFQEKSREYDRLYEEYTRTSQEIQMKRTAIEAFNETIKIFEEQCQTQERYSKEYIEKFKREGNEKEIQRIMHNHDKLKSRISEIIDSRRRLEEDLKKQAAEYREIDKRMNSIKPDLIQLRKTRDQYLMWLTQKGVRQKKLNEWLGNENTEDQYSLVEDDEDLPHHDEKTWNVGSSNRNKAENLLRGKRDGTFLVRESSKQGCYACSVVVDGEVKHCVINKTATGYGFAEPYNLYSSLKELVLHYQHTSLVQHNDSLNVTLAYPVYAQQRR
T3 sequence (P78368 whole entry): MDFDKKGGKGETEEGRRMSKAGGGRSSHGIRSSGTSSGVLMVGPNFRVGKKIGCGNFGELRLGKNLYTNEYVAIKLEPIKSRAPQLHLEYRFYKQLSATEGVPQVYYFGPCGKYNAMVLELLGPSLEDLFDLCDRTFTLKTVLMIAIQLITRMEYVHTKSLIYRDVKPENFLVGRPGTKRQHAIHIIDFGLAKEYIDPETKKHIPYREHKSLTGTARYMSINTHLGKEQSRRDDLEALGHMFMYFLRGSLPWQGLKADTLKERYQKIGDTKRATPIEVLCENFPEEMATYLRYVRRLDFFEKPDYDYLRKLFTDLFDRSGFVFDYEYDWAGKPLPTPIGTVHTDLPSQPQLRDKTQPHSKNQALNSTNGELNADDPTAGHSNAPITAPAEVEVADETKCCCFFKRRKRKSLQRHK
Chain of MYLK2(h) (Q9H1R3 whole entry): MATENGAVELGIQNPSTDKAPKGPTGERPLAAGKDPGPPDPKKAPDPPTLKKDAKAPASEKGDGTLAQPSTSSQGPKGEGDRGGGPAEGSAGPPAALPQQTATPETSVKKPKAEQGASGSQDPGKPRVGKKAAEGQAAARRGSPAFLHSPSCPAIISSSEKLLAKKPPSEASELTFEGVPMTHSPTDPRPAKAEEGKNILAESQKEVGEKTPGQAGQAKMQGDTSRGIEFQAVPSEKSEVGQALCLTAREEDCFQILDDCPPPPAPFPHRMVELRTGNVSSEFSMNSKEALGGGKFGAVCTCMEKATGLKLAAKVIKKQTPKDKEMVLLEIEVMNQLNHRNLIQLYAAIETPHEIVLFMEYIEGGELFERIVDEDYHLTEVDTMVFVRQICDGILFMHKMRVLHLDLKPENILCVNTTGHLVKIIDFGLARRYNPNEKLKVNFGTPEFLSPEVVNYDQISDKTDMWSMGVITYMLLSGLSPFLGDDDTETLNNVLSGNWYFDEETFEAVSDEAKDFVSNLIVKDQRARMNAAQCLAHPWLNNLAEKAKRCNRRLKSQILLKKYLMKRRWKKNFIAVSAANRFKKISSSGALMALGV

SMILES: COc1ccc2ncnc(Nc3cccc(F)c3)c2c1 [5ay, N-(3-Fluorophenyl)-6-Methoxy-4-Quinazolinamine]
- remaining activity at 10 µM [1, 2]: 91%
- remaining activity at 10 µM (GCN2(h); [2]): 83%
- remaining activity at 10 µM (MYLK2(h); [2]): 89%
- remaining activity at 10 µM (CK1γ2(h); [2]): 62%
- remaining activity at 10 µM (MKK6(h); [2]): 74%
- remaining activity at 10 µM (DYRK2(h); [2]): 64%
- remaining activity at 10 µM (EphB3(h); [2]): 84%

SMILES: Fc1ccc(CNc2ncnc3ccc(F)cc23)cc1 [5aa, 6-Fluoro-N-(4-fluorobenzyl)-4-Quinazolinamine]
- remaining activity at 10 µM [1, 3]: 94%
- remaining activity at 10 µM (GCN2(h); [3]): 85%
- remaining activity at 10 µM (MYLK2(h); [3]): 97%
- remaining activity at 10 µM (CK1γ2(h); [3]): 84%
- remaining activity at 10 µM (MKK6(h); [3]): 78%
- remaining activity at 10 µM (DYRK2(h); [3]): 99%
- remaining activity at 10 µM (EphB3(h); [3]): 93%

SMILES: Fc1ccc2ncnc(NCCc3ccc(Cl)cc3)c2c1 [5at, N-[2-(4-Chlorophenyl)Ethyl]-6-Fluoro-4-Quinazolinamine]
- remaining activity at 10 µM [1, 4]: 91%
- remaining activity at 10 µM (GCN2(h); [4]): 97%
- remaining activity at 10 µM (MYLK2(h); [4]): 93%
- remaining activity at 10 µM (CK1γ2(h); [4]): 76%
- remaining activity at 10 µM (MKK6(h); [4]): 95%
- remaining activity at 10 µM (DYRK2(h); [4]): 103%
- remaining activity at 10 µM (EphB3(h); [4]): 76%

SMILES: Fc1ccc(CCNc2ncnc3ccc(F)cc23)cc1 [5as, 6-Fluoro-N-[2-(4-Fluorophenyl)Ethyl]-4-Quinazolinamine]
- remaining activity at 10 µM [1, 5]: 91%
- remaining activity at 10 µM (GCN2(h); [5]): 85%
- remaining activity at 10 µM (MYLK2(h); [5]): 80%
- remaining activity at 10 µM (CK1γ2(h); [5]): 72%
- remaining activity at 10 µM (MKK6(h); [5]): 84%
- remaining activity at 10 µM (DYRK2(h); [5]): 100%
- remaining activity at 10 µM (EphB3(h); [5]): 79%
